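Growth conditions: 96-well plates. Treatment: test compound, 48 hours, 5 concentrations. Analysis: linear interpolation between bracketing concentrations; unreached endpoints set to highest concentration. TGI: total growth inhibition.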
Assays:
Assay in all cases: growth of human tumour cells (NCI), 48 h
[1] = test system: UACC-62 melanoma
[2] = test system: HCC-2998 colon
[3] = test system: HCT-116 colon
[4] = test system: IGROV1 ovarian
[5] = test system: SK-MEL-2 melanoma
[6] = test system: SK-MEL-5 melanoma
[7] = test system: A549 NSCLC
[8] = test system: U251 CNS
[9] = test system: ACHN renal
[10] = test system: PC-3 prostate

In the case of `C=C1C(=O)C[C@@]23CCC[C@@]12CC(O)C3` (some centres not stated), the TGI [1] is reported as 30.9 µM, the TGI [2] is reported as > 62.1 µM and the TGI [3] is reported as 44.5 µM. The TGI [4] was 12.8 µM, the TGI [5] was 73.2 µM and the TGI [6] was > 39.5 µM. For the same compound, the TGI [7] was > 100 µM and the TGI [8] was > 100 µM.
With `C=CC1(CCC(Br)C(C)(C)Cl)CO1` (configuration not stated) the TGI [2] was > 10 µM, the TGI [3] was > 10 µM and the TGI [4] was > 10 µM. For the same compound, the TGI [5] was > 10 µM, the TGI [6] was > 10 µM and the TGI [9] was > 10 µM. The TGI [7] was > 10 µM, the TGI [8] was > 10 µM and the TGI [10] was > 10 µM.
With `Cc1cnc2[nH]c(-c3ccccc3)cc(=O)c2c1` the TGI [2] was 1.96 µM, the TGI [3] was > 100 µM and the TGI [4] was > 100 µM. The TGI [5] was > 35.7 µM, the TGI [6] was 21.2 µM and the TGI [9] was > 100 µM. For the same compound, the TGI [7] was > 100 µM, the TGI [8] was > 22.1 µM and the TGI [10] was > 57.3 µM.
For `COC(=O)C(Cc1ccccc1)NC(=O)CCCNC(=O)OCc1ccccc1` (configuration not stated), the TGI [1] was > 100 µM, the TGI [2] was > 100 µM and the TGI [3] was > 100 µM. For the same compound, the TGI [4] was > 100 µM, the TGI [6] was 46.8 µM and the TGI [9] was > 100 µM. The TGI [7] was > 100 µM, the TGI [8] was > 100 µM and the TGI [10] was > 100 µM.
In the case of `CC(=O)Nc1ccc(C(=O)N2N=C(C)/C(=C/c3cccc(O)c3)C2=O)cc1`, the TGI [2] is reported as > 100 µM, the TGI [3] is reported as > 100 µM and the TGI [5] is reported as > 100 µM. The TGI [6] was > 100 µM, the TGI [9] was > 100 µM and the TGI [7] was > 100 µM. The TGI [8] was > 100 µM.
In the case of `CC(=O)OCC1OC(n2c3c(c(-c4ccco4)c(C#N)c2=S)CCCC3)C(OC(C)=O)C(OC(C)=O)C1OC(C)=O` (configuration not stated), the TGI [3] is reported as > 31.6 µM, the TGI [4] is reported as > 31.6 µM and the TGI [5] is reported as > 31.6 µM. For the same compound, the TGI [6] was > 31.6 µM, the TGI [9] was > 31.6 µM and the TGI [7] was > 31.6 µM.
In the case of `COc1cc2cc3c4c(cc(OC)c(OC)c4c2cc1OC)CCN3C(=O)OCCBr`, the TGI [1] is reported as > 100 µM, the TGI [2] is reported as > 100 µM and the TGI [3] is reported as > 100 µM. For the same compound, the TGI [4] was > 100 µM, the TGI [5] was > 100 µM and the TGI [6] was > 100 µM. For the same compound, the TGI [9] was > 100 µM, the TGI [7] was > 100 µM and the TGI [8] was > 100 µM.
`CC(C)CC1c2[nH]c3ccccc3c2C[C@H]2C(=O)NC(COC(C)(C)C)C(=O)N12` (some centres not stated) gave a TGI [1] of 49.5 µM, a TGI [3] of 37.9 µM and a TGI [4] of 63.1 µM. The TGI [5] was 38.8 µM, the TGI [6] was 47.4 µM and the TGI [9] was 88.4 µM. For the same compound, the TGI [7] was > 100 µM, the TGI [8] was 41 µM and the TGI [10] was 55.1 µM.
`COc1ccc(S(=O)(=O)Nc2ccc(-c3csc(N4C(=O)/C(=C/C=C\c5ccccc5)N=C4c4ccccc4)n3)cc2)cc1Cl` showed a TGI [1] of 49.9 µM, a TGI [3] of 68.5 µM and a TGI [4] of 56.5 µM. For the same compound, the TGI [5] was 56.3 µM, the TGI [6] was > 100 µM and the TGI [9] was > 100 µM. For the same compound, the TGI [7] was > 100 µM, the TGI [8] was 76.4 µM and the TGI [10] was > 100 µM.
`COc1ccc(NC(=O)C2=C(SC)C(=O)N=C2N)cc1` was tested, and the TGI [1] was > 100 µM, the TGI [2] was > 100 µM and the TGI [3] was > 100 µM. For the same compound, the TGI [4] was > 100 µM, the TGI [5] was > 100 µM and the TGI [6] was > 100 µM. For the same compound, the TGI [9] was > 100 µM, the TGI [8] was > 100 µM and the TGI [10] was > 100 µM.
With `Cc1ccc(C2=Nn3c(nc4sc(-c5ccccc5)cc4c3=O)SC2)cc1` the TGI [1] was > 100 µM, the TGI [2] was > 100 µM and the TGI [3] was > 100 µM. The TGI [4] was > 100 µM, the TGI [6] was > 100 µM and the TGI [9] was > 100 µM. For the same compound, the TGI [7] was > 100 µM, the TGI [8] was > 100 µM and the TGI [10] was > 100 µM.
In the case of `O=C(O)c1ccccc1-c1ccccc1C(=O)c1ccccc1`, the TGI [1] is reported as > 100 µM, the TGI [3] is reported as > 100 µM and the TGI [4] is reported as > 100 µM. The TGI [5] was > 100 µM, the TGI [6] was > 100 µM and the TGI [9] was > 100 µM. The TGI [7] was > 100 µM, the TGI [8] was > 100 µM and the TGI [10] was > 100 µM.
`O=C(CCN1CCCCC1CO)Nc1ccc2c(c1)C(=O)c1ccc(NC(=O)CCN3CCCCC3CO)cc1C2=O` (configuration not stated) was tested, and the TGI [1] was 23.6 µM, the TGI [2] was 20.8 µM and the TGI [3] was 19.6 µM. The TGI [4] was 23.1 µM, the TGI [5] was 18.8 µM and the TGI [6] was 29 µM. The TGI [9] was 32 µM, the TGI [7] was 82.4 µM and the TGI [8] was 20.6 µM.
For `CC(=O)Oc1ccc2c(c1)c1c(OC(C)=O)c3ccccc3c(OC(C)=O)c1n2Cc1cccc(C)c1`, the TGI [1] was > 100 µM, the TGI [2] was 84.2 µM and the TGI [3] was > 100 µM. The TGI [4] was > 100 µM, the TGI [5] was 48.4 µM and the TGI [9] was > 100 µM. The TGI [7] was > 100 µM, the TGI [8] was > 100 µM and the TGI [10] was > 100 µM.
For `C=C1c2nc3ccccc3n2C=C(c2ccccc2)N1c1ccc(OC)cc1`, the TGI [1] was 62.2 µM, the TGI [3] was 59.9 µM and the TGI [4] was 35.8 µM. For the same compound, the TGI [5] was > 100 µM, the TGI [6] was 38.2 µM and the TGI [9] was 28.7 µM. The TGI [7] was > 100 µM, the TGI [8] was > 100 µM and the TGI [10] was > 100 µM.
In the case of `Fc1nc(F)nc(-c2c3ccccc3c3n2CCS3)n1`, the TGI [2] is reported as > 100 µM, the TGI [3] is reported as > 100 µM and the TGI [4] is reported as > 100 µM. For the same compound, the TGI [5] was > 100 µM, the TGI [6] was > 100 µM and the TGI [9] was > 100 µM. For the same compound, the TGI [7] was > 100 µM and the TGI [8] was 92.7 µM.
In the case of `CCC1(O)CN(CCOC)[C@H]2C[C@@H]1C(=O)c1[nH]c3ccccc3c12` (some centres not stated), the TGI [2] is reported as > 100 µM, the TGI [3] is reported as > 100 µM and the TGI [4] is reported as > 100 µM. For the same compound, the TGI [5] was > 100 µM, the TGI [6] was > 100 µM and the TGI [9] was > 100 µM. The TGI [7] was > 100 µM, the TGI [8] was > 100 µM and the TGI [10] was > 100 µM.
`COc1ccc([C@@]23CCC(=O)C[C@@H]2N(C)CC3)cc1OC` was tested, and the TGI [1] was > 100 µM, the TGI [2] was > 100 µM and the TGI [4] was > 100 µM. For the same compound, the TGI [5] was > 100 µM, the TGI [6] was > 100 µM and the TGI [9] was > 100 µM. The TGI [7] was > 100 µM, the TGI [8] was > 100 µM and the TGI [10] was > 100 µM.
`O=C1O/C(=C\c2ccc(O)cc2)C(c2ccc(O)c(Cl)c2)=C1Br` gave a TGI [1] of 28.9 µM, a TGI [2] of 23.6 µM and a TGI [3] of 23.6 µM. The TGI [4] was 25.7 µM, the TGI [5] was 28.5 µM and the TGI [6] was 25.9 µM. The TGI [9] was 30 µM, the TGI [8] was 34.5 µM and the TGI [10] was 23.7 µM.
With `C=C1C(=O)O[C@H]2C(=O)[C@H](C)CCC[C@@](C)(O)/C=C\C[C@@]3(C)O[C@@H]3C[C@@H]12` the TGI [1] was 37.8 µM, the TGI [3] was 20.2 µM and the TGI [4] was 41.6 µM. It also gave a TGI [5] of 41.5 µM, a TGI [6] of 29 µM and a TGI [9] of 20.5 µM. For the same compound, the TGI [7] was 38.6 µM, the TGI [8] was 34.4 µM and the TGI [10] was 38.6 µM.
`c1ccc(C/C(=N\Nc2nc3ccccc3o2)c2ccccn2)cc1` was tested, and the TGI [1] was 2.49 µM, the TGI [3] was 3.68 µM and the TGI [4] was 0.609 µM. For the same compound, the TGI [5] was 20.7 µM, the TGI [6] was 0.368 µM and the TGI [9] was 3.31 µM. For the same compound, the TGI [7] was > 34.6 µM, the TGI [8] was 5.32 µM and the TGI [10] was 5.68 µM.
For `Cc1cccc(N2CCN(S(=O)(=O)c3ccc(Cl)cc3)C2=N)c1C`, the TGI [1] was > 100 µM, the TGI [3] was > 100 µM and the TGI [4] was 99.3 µM. For the same compound, the TGI [6] was > 100 µM, the TGI [9] was > 100 µM and the TGI [7] was > 100 µM. The TGI [8] was > 100 µM.
For `O=C(O)CCCc1nc2c(n1-c1ccccc1)C(=O)c1ccccc1C2=O`, the TGI [1] was > 100 µM, the TGI [2] was > 100 µM and the TGI [3] was > 100 µM. For the same compound, the TGI [4] was > 100 µM, the TGI [5] was > 100 µM and the TGI [9] was > 100 µM. The TGI [7] was > 100 µM and the TGI [8] was > 100 µM.

Reference: PubChem BioAssay (NCI)
